Experimental findings from patent US10052330B2, “Substituted pyrido[3,4-b]pyrazines as Syk inhibitors” (HUTCHISON MEDIPHARMA LIMITED, priority 2011, dated 2018) are described below.

Structures are written as SMILES. Like-named read-outs stand apart in the source and are kept apart here.

By IC50 is commonly meant the concentration that gives 50% inhibition.

Test [1] concerns RBL-2H3 cells. Briefly: IgE-induced Beta-hexosaminidase secretion in RBL-2H3 cells. Type of test: cell-based. Conditions: Rattus norvegicus.
Test [2] has as its target Syk kinase (Homo sapiens, UniProt P43405). The test can be described thus: Syk kinase enzymatic assay (Kit-Tyr 2 Peptide). It counts as biochemical.
Where [3] appears, read: RBL-2H3, RBL-2H3 cells sensitized with SPE-7, stimulated with DNP-BSA, upper bound of each range is 'less than', read-out: IC50, IgE-induced Beta-hexosaminidase secretion.
[4] abbreviates: 8 concentrations, 1 μM down to 0.0003 μM, upper bound of each range is 'less than', read-out: IC50: Enzymatic Activity (Syk kinase).

With `CS(=O)(=O)NC[C@@H]1CCN(c2nc(-c3ccc(N4CCOCC4)cc3)cc3nccnc23)C1` [Compound 149, (R)—N-((1-(7-(4-morpholinophenyl)pyrido[4,3-b]pyrazin-5-yl)pyrrolidin-3-yl)methyl)methanesulfonamide], the IC50 in test [1] (setting [3]) and in test [2] (setting [4]) was 100 to 1000 nM throughout.
For `CCN(CC)c1ccc(-c2cc3nccnc3c(NCC3CCCNC3)n2)cc1` (stereo not drawn) [Compound 73], the IC50 in test [1] (setting [3]) lay within 100 to 1000 nM; in test [2] (setting [4]), 1 to 100 nM.
The like results for `CC(C)COc1ccc(-c2cc3nccnc3c(NCC3CCCNC3)n2)cc1` (stereo not drawn) [Compound 42] were, in that order, 100 to 1000 nM and 1 to 100 nM.
The like results for `COCC(=O)N1CCN(c2ccc(-c3cc4nccnc4c(NC[C@@H]4CNCCO4)n3)cc2)CC1` [Compound 279] were, in that order, 1 to 100 nM and 1 to 100 nM.
The like results for `CN(C)C(=O)c1ccc(-c2cc3nccnc3c(NCC3CNCCC3(F)F)n2)cc1` (stereo not drawn) [Compound 304] were, in that order, 1 to 100 nM and 100 to 1000 nM.
For the compound `CN(C)c1cccc(-c2cc3nccnc3c(NCC3CCCNC3)n2)c1` (stereo not drawn) [Compound 13], the IC50 in test [1] (setting [3]) and in test [2] (setting [4]) was 100 to 1000 nM in each case.
With `CC(C)(O)C1CCN(c2ccc(-c3cc4nccnc4c(NC[C@@H]4CNCCO4)n3)cc2)CC1` [Compound 275], the IC50 in test [1] (setting [3]) and in test [2] (setting [4]) was 1 to 100 nM each time.
As for `CN1CCN(c2ccc(-c3cc4nccnc4c(NC[C@@H]4CNCCO4)n3)cc2)CC1` [Compound 123], the 50% inhibitory concentration (IC50) in test [1] (setting [3]) and in test [2] (setting [4]) was 1 to 100 nM each time.
For the compound `OCCn1cc(-c2cc3nccnc3c(NCC3CNCCC3(F)F)n2)cn1` (stereo not drawn) [Compound 315], the half-maximal inhibitory concentration (IC50) in test [1] (setting [3]) and in test [2] (setting [4]) was 1 to 100 nM in each case.
For the compound `O=C(CF)N1CCO[C@H](CNc2nc(-c3ccc(N4CCOCC4)cc3)cc3nccnc23)C1` [Compound 340], the IC50 in test [1] (RBL-2H3, read-out: IC50, IgE-induced Beta-hexosaminidase secretion) fell in the range of 1 to 100 nM; in test [2], 1 to 100 nM.
In the case of `NC(=O)NC[C@@H]1CCN(c2nc(-c3ccc(N4CCOCC4)cc3)cc3nccnc23)C1` [Compound 150, (S)-1-((1-(7-(4-morpholinophenyl)pyrido[4,3-b]pyrazin-5-yl)pyrrolidin-3-yl)methyl)urea], the IC50 in test [1] (setting [3]) and in test [2] (setting [4]) was 100 to 1000 nM throughout.
Consider `CC(C)(C)c1ccc(-c2cc3nccnc3c(NCC3CCCNC3)n2)cc1` (stereo not drawn) [Compound 47], for which the half-maximal inhibitory concentration (IC50) in test [1] (setting [3]) lay in the range of 100 to 1000 nM; in test [2] (setting [4]), 1 to 100 nM.
Regarding `FC1(CNc2nc(-c3cnn(C4CCOCC4)c3)cc3nccnc23)CCCNC1` (stereo not drawn) [Compound 290], the half-maximal inhibitory concentration (IC50) in test [1] (setting [3]) and in test [2] (setting [4]) was 1 to 100 nM each time.
On to `CN(C)c1ccc(-c2cc3nccnc3c(NC[C@@H]3CNCCO3)n2)cc1F` [Compound 141], for which the 50% inhibitory concentration (IC50) in test [1] (setting [3]) and in test [2] (setting [4]) was 1 to 100 nM each time.
As for `CC(C)(O)CN1CCN(c2ccc(-c3cc4nccnc4c(NCC4CNCCO4)n3)cc2)CC1` (stereo not drawn) [Compound 217], the concentration for half-maximal inhibition (IC50) in test [1] (setting [3]) and in test [2] (setting [4]) was 1 to 100 nM each time.
Turning to `N#CC1(C(=O)N2CCN(c3ccc(-c4cc5nccnc5c(NCC5CNCCO5)n4)cc3)CC2)CC1` (stereo not drawn) [Compound 423], the IC50 in test [1] (setting [3]) and in test [2] (setting [4]) was 1 to 100 nM in each case.
Regarding `c1cnc2c(NC[C@@H]3CNCCO3)nc(-c3ccc(N4CCCC4)nc3)cc2n1` [Compound 103], the half-maximal inhibitory concentration (IC50) was 100 to 1000 nM in test [1] (setting [3]) and 1 to 100 nM in test [2] (setting [4]).
The matching figures for `CN(c1ccc(-c2cc3nccnc3c(NC[C@H]3CNCCC3(F)F)n2)cc1)S(C)(=O)=O` [Compound 395, (R)—N-(4-(5-((4,4-difluoropiperidin-3-yl)methylamino)pyrido[4,3-b]pyrazin-7-yl)phenyl)-N-methylmethanesulfonamide]: 1 to 100 nM and 100 to 1000 nM.
The like results for `Cc1cc(-c2cc3nccnc3c(NC[C@@H]3CCCNC3)n2)ccc1N1CCOCC1` [Compound 120] were, in that order, 100 to 1000 nM and 1 to 100 nM.
The matching figures for `COc1ccc(-c2cc3nccnc3c(NCC3CCCNC3)n2)cc1F` (stereo not drawn) [Compound 19]: 1 to 100 nM and 1 to 100 nM.
Consider `CS(=O)(=O)N1CCO[C@H](CNc2nc(-c3ccc(N4CCOCC4)cc3)cc3nccnc23)C1` [Compound 332], for which the IC50 in test [1] (setting [3]) and in test [2] (setting [4]) was 1 to 100 nM throughout.
As for `CNc1ccc(-c2cc3nccnc3c(NCC3CNCCC3(F)F)n2)cc1F` (stereo not drawn) [Compound 300], the IC50 in test [1] (setting [3]) and in test [2] (setting [4]) was 1 to 100 nM each time.
On to `O=C(C(F)F)N1CCO[C@H](CNc2nc(-c3ccc(N4CCN(CCO)CC4)cc3)cc3nccnc23)C1` [Compound 489], for which the 50% inhibitory concentration (IC50) in test [1] (setting [3]) and in test [2] (setting [4]) was 1 to 100 nM in each case.
In the case of `C[C@H]1CN(c2ccc(-c3cc4nccnc4c(NC[C@H]4CNCCC4(F)F)n3)cc2)CCO1` [Compound 397, (R)—N-((4,4-difluoropiperidin-3-yl)methyl)-7-(4-((S)-2-methylmorpholino)phenyl)pyrido[4,3-b]pyrazin-5-amine], the half-inhibitory concentration (IC50) in test [1] (setting [3]) and in test [2] (setting [4]) was 1 to 100 nM each time.
Regarding `O=S(=O)(C1CC1)N1CCC(c2ccc(-c3cc4nccnc4c(NC[C@@H]4CNCCO4)n3)cc2)CC1` [Compound 497], the IC50 in test [1] (setting [3]) and in test [2] (setting [4]) was 1 to 100 nM each time.
Turning to `NC(=O)N1CCC(c2ccc(-c3cc4nccnc4c(NC[C@@H]4CNCCO4)n3)cc2)CC1` [Compound 506], the IC50 in test [1] (setting [3]) fell in the range of 100 to 1000 nM; in test [2] (setting [4]) it was 1 to 100 nM.
For the compound `CCN1CCN(c2ccc(-c3cc4nccnc4c(NC[C@@H]4CN(C(=O)C(F)F)CCO4)n3)cc2)CC1` [Compound 488], the half-maximal inhibitory concentration (IC50) in test [1] (setting [3]) and in test [2] (setting [4]) was 1 to 100 nM each time.
For `CN(CCCN)c1nc(-c2ccc(N3CCOCC3)cc2)cc2nccnc12` [Compound 4], the IC50 in test [1] (setting [3]) and in test [2] (setting [4]) was 100 to 1000 nM throughout.
As for `CC(C)Oc1ccc(-c2cc3nccnc3c(NC[C@@H]3CNCCO3)n2)cc1F` [Compound 100], the half-maximal inhibitory concentration (IC50) in test [1] (setting [3]) and in test [2] (setting [4]) was 100 to 1000 nM throughout.
Take `c1cnc2c(NCCc3c[nH]cn3)nc(-c3ccc(N4CCOCC4)cc3)cc2n1` [Compound 172]: the IC50 in test [1] (setting [3]) and in test [2] (setting [4]) was 100 to 1000 nM throughout.
On to `CCS(=O)(=O)N1CCC(c2ccc(-c3cc4nccnc4c(NC[C@@H]4CNCCO4)n3)cc2)CC1` [Compound 446], for which the IC50 in test [1] (setting [3]) and in test [2] (setting [4]) was 1 to 100 nM each time.
As for `CC(C)Oc1ccc(-c2cc3nccnc3c(NC[C@@H]3CCCNC3)n2)cc1F` [Compound 88], the IC50 in test [1] (setting [3]) and in test [2] (setting [4]) was 100 to 1000 nM each time.
With `CC(F)C(=O)N1CCN(c2ccc(-c3cc4nccnc4c(NC[C@@H]4CNCCO4)n3)cc2)CC1` (stereo partly drawn) [Compound 433], the half-maximal inhibitory concentration (IC50) in test [1] (setting [3]) and in test [2] (setting [4]) was 1 to 100 nM throughout.
Turning to `N#CCC(=O)N1CCO[C@H](CNc2nc(-c3ccc(N4CCOCC4)cc3)cc3nccnc23)C1` [Compound 324], the half-inhibitory concentration (IC50) in test [1] (setting [3]) and in test [2] (setting [4]) was 1 to 100 nM in each case.
Take `CCN1CCC(c2ccc(-c3cc4nccnc4c(NC[C@@H]4CN(S(C)(=O)=O)CCO4)n3)cc2)CC1` [Compound 479, (R)-7-(4-(1-ethylpiperidin-4-yl)phenyl)-N-((4-(methylsulfonyl)morpholin-2-yl)methyl)pyrido[4,3-b]pyrazin-5-amine]: the IC50 in test [1] (RBL-2H3 cells sensitized with SPE-7, stimulated with DNP-BSA, upper bound of each range is 'less than', read-out: IC50, IgE-induced Beta-hexosaminidase secretion) was 1 to 100 nM; in test [2] (setting [4]), 1 to 100 nM.
Consider `CN(c1ccc(-c2cc3nccnc3c(NC[C@@H]3CNCCO3)n2)cc1)C1CCOCC1` [Compound 285], for which the IC50 in test [1] (setting [3]) and in test [2] (setting [4]) was 1 to 100 nM in each case.
